Results on seven compounds are retold here after patent publication US20260364184A1, “COMPOUND BASED ON OXOISOINDOLINYL-SUBSTITUTED TETRAHYDROPYRIMIDINE-DIONE AND USE THEREOF” (GLUETACS THERAPEUTICS (SHANGHAI) CO., LTD., priority 2023, published 2026).

Holding throughout (assay type): cell-based
The target in one assay is T1, CDK4 (Homo sapiens, UniProt P11802+Q96SW2).
T1 construct: expression of target proteins in cells; endogenous in cells
The experiment in a line: Western blot degradation of CDK4. As to conditions: MDA-MB-231 Cell; 24 hours. How it is done:
(§1) Conventional Western blot assay was performed to evaluate the effects of the compounds of the present disclosure on the expression of target proteins in cells.
(§2) (1) Cell Seeding and Protein Harvesting: The selected cells were processed according to the cell seeding procedure and protein harvesting procedure in Table II-2.
(§3) (2) To the collected supernatant, 5×SDS sample loading buffer was added, followed by denaturation at 95 °C for 5 minutes. The denatured samples were then separated by SDS-PAGE electrophoresis on a polyacrylamide gel. Proteins were transferred to a nitrocellulose membrane (0.45 μm NC membrane), blocked with blocking buffer at room temperature for 1 hour, and subjected to antibody incubation and development procedures according to the antibody manufacturer's instructions (Cell Signaling Technology).
(§4) Half-Maximal Degradation Concentration value (the drug concentration required for degrading proteins by 50%, abbreviated as DC50) reads method: comparing the grayscale values of Western blot bands from drug-treated samples with those from blank DMSO-treated controls, and identifying the drug concentration range at which the grayscale value is half that of the DMSO-treated control bands.
(§5) DC50 values can be calculated using ImageJ software to measure grayscale values of Western blot bands from drug-treated samples. The concentration-response curve is fitted to estimate the drug concentration corresponding to half the grayscale value.
(§6) Target protein remaining (%) refers to the percentage of target protein remaining in cells after treatment with protein degrader compounds.
(§7) Calculation method for target protein remaining (%): Use ImageJ software to measure grayscale values of Western blot bands from drug (protein degrader)-treated samples. The grayscale value of drug-treated bands is divided by that of internal control protein bands, and the resulting quotient is normalized to obtain the relative percentage of remaining target protein after protein degrader treatment.
(§8) Target protein degradation rate (%)=1−target protein remaining (%).

Assay [1] deals with Human lung cancer cell line (H292). The experiment in a line: Inhibition of H292 cell proliferation (CellTiter luminescent viability). The note with it: NCI-H292, Table IE2, CDK4/6 inhibitor-based, 96 hours; for inhibition at 0.01 µM: H292, 10 nM, read-out: Inhibition Rate at 10 nM (%); for inhibition at 0.5 µM: H292, 500 nM, read-out: Inhibition Rate at 500 nM (%).
Another assay concerns the target T2, CDK6 (Homo sapiens, UniProt Q00534+Q96SW2).
T2 construct: expression of target proteins in cells; endogenous in cells
Description: Western blot degradation of CDK6. The note with it: MDA-MB-231 Cell; 24 hours. The procedure:
as §1, §2, §3, §4, §5, §6, §7, §8

Assay [2] concerns Human myeloid monocytic leukemia cell line (MV-4-11). The experiment in a line: Inhibition of MV-4-11 cell proliferation (CellTiter luminescent viability). As to conditions: Homo sapiens, MV4-11, Table IE3, CDK4/6 inhibitor-based, 96 hours; for inhibition at 0.01 µM: MV-4-11, 10 nM, read-out: Inhibition Rate at 10 nM (%); for inhibition at 0.5 µM: MV-4-11, 500 nM, read-out: Inhibition Rate at 500 nM (%). In short, it runs like this: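 IC50 is fitted from luminescent viability (CellTiter-Meiluncell) curves. Nine-point, 5-fold dilution series (top stock 2000 μM) are added at 0.5 μL per 100 μL medium to cells plated the day before, with growth at 37 °C and 5% CO2.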

T2 sequence (Q00534 whole entry): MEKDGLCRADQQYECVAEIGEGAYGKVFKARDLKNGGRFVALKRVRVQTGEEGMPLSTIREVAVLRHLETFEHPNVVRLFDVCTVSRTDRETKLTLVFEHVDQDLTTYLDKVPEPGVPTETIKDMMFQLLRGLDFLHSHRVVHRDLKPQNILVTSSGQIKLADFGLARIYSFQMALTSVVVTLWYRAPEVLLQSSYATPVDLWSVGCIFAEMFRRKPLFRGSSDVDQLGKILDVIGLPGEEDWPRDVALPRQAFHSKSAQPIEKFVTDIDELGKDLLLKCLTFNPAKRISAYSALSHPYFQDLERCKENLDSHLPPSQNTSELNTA
T2 sequence (Q96SW2 whole entry): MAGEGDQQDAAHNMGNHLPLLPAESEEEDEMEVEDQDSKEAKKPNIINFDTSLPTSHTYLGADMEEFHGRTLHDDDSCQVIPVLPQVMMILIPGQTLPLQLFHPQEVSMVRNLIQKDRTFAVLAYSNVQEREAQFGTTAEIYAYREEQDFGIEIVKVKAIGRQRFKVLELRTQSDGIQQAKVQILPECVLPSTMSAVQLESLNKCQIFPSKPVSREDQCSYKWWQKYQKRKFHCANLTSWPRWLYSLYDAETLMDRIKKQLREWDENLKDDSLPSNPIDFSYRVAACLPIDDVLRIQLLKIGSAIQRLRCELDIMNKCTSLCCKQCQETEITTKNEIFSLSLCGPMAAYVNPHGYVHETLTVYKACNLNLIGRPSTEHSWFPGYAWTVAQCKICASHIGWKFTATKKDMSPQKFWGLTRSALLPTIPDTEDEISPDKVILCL
T2 sequence (Q16531 whole entry partner): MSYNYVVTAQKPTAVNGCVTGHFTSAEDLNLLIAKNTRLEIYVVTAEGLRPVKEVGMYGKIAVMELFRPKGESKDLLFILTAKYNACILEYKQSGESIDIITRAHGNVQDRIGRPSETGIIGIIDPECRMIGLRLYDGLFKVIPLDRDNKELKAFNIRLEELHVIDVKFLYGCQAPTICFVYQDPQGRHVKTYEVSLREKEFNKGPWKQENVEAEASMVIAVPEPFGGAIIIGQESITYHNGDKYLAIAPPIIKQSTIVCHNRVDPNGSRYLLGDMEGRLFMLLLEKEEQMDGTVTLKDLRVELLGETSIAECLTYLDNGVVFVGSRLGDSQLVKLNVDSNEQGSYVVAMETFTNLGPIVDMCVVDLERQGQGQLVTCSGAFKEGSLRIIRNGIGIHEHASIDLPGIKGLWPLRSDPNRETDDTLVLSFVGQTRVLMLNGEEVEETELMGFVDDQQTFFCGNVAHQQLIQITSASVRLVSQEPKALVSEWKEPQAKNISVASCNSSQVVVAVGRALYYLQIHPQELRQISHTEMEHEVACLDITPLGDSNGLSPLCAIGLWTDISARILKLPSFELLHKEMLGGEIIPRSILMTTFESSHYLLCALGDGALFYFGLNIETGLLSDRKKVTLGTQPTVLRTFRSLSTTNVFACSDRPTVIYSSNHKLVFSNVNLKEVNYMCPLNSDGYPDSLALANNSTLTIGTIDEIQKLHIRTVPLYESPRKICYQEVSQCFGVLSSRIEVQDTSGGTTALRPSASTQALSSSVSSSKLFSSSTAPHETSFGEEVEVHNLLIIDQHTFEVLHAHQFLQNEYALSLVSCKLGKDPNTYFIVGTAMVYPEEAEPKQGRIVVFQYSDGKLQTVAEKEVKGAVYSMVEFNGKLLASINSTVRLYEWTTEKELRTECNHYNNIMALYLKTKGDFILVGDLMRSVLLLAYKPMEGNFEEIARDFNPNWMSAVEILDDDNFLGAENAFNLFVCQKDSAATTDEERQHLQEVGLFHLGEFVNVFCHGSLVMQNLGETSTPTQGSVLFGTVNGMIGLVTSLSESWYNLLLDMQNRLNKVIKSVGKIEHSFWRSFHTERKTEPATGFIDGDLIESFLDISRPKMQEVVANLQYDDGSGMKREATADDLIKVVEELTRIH
T1 sequence (P11802 whole entry): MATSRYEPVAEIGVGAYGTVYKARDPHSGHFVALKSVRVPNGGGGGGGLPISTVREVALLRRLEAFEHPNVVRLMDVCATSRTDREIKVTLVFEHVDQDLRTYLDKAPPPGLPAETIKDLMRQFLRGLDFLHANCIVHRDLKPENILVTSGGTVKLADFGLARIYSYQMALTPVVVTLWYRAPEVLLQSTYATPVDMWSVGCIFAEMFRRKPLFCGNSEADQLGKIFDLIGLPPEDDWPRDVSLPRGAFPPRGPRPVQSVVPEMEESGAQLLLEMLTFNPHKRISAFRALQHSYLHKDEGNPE
T1 sequence (Q96SW2 whole entry): as the sequence (Q96SW2 whole entry) above
T1 sequence (Q16531 whole entry partner): as the sequence (Q16531 whole entry partner) above

On to `CN(C)C(=O)c1cc2cnc(Nc3ccc(N4CCC(CN5CCN(c6cc7c(cc6F)C(=O)N(N6CCC(=O)NC6=O)C7=O)CC5)CC4)cn3)nc2n1C1CCCC1` [GT-05199, 7-cyclopentyl-2-((5-(4-((4-(2-(2,4-dioxotetrahydropyrimidin-1(2H)-yl)-6-fluoro-1,3-dioxoisoindolin-5-yl)piperazin-1-yl)methyl)piperidin-1-yl)pyridin-2-yl)amino)-N,N-dimethyl-7H-pyrrolo[2,3-d]pyrimidine-6-carboxamide], for which the “Degradation of substrate protein CDK4 (substrate protein remaining %)” value at CDK4 is on record as “B (80%<substrate protein remaining %≤100%)”. In addition, in assay [1], the inhibition at 0.01 µM lay within 40 to 60% and the inhibition at 0.5 µM fell in the range of 35 to 40%. For the same compound, the “Degradation of substrate protein CDK6 (substrate protein remaining %)” value on CDK6 is reported as “A (0%≤substrate protein remaining %≤80%)”.
As to `CN(C)C(=O)c1cc2cnc(Nc3ccc(N4CCC(CN5CCN(C6CCN(c7ccc8c(c7)C(=O)N(N7CCC(=O)NC7=O)C8=O)CC6)CC5)CC4)cn3)nc2n1C1CCCC1` [GT-05205, 7-cyclopentyl-2-((5-(4-((4-(1-(2-(2,4-dioxotetrahydropyrimidin-1(2H)-yl)-1,3-dioxoisoindolin-5-yl)piperidin-4-yl)piperazin-1-yl)methyl)piperidin-1-yl)pyridin-2-yl)amino)-N,N-dimethyl-7H-pyrrolo[2,3-d]pyrimidine-6-carboxamide], in assay [2], the inhibition at 0.01 µM lay within 20 to 25% and the inhibition at 0.5 µM lay within 40 to 60%. For the same compound, the “Degradation of substrate protein CDK4 (substrate protein remaining %)” value on CDK4 is reported as “B (80%<substrate protein remaining %≤100%)”. Besides, in assay [1], the inhibition at 0.01 µM lay in the range of 35 to 40% and the inhibition at 0.5 µM lay within 35 to 40%. For the same compound, the “Degradation of substrate protein CDK6 (substrate protein remaining %)” value on CDK6 was “A (0%≤substrate protein remaining %≤80%)”.
`CN(C)C(=O)c1cc2cnc(Nc3ccc(N4CCC(CN5C6CCC5CN(c5ccc7c(c5)C(=O)N(N5CCC(=O)NC5=O)C7=O)C6)CC4)cn3)nc2n1C1CCCC1` [GT-05812, 7-cyclopentyl-2-((5-(4-((3-(2-(2,4-dioxotetrahydropyrimidin-1(2H)-yl)-1,3-dioxoisoindolin-5-yl)-3,8-diazabicyclo[3.2.1]octan-8-yl)methyl)piperidin-1-yl)pyridin-2-yl)amino)-N,N-dimethyl-7H-pyrrolo[2,3-d]pyrimidine-6-carboxamide]: the inhibition at 0.01 µM in assay [2] lay within 15 to 20%; in assay [1], 35 to 40%. For the same compound, the inhibition at 0.5 µM in assay [2] lay within 40 to 60%; in assay [1], 30 to 35%. Moreover, at CDK4, the “Degradation of substrate protein CDK4 (substrate protein remaining %)” value is recorded as “B (80%<substrate protein remaining %≤100%)”. For the same compound, at CDK6, the “Degradation of substrate protein CDK6 (substrate protein remaining %)” value is “A (0%≤substrate protein remaining %≤80%)”.
`CN(C)C(=O)c1cc2cnc(Nc3ccc(N4CCN(CC5CCN(c6cccc7c6C(=O)N(N6CCC(=O)NC6=O)C7=O)CC5)CC4)cn3)nc2n1C1CCCC1` [GT-06338, 7-cyclopentyl-2-((5-(4-((1-(2-(2,4-dioxotetrahydropyrimidin-1(2H)-yl)-1,3-dioxoisoindolin-4-yl)piperidin-4-yl)methyl)piperazin-1-yl)pyridin-2-yl)amino)-N,N-dimethyl-7H-pyrrolo[2,3-d]pyrimidine-6-carboxamide]: at CDK4, the “Degradation of substrate protein CDK4 (substrate protein remaining %)” value is “A (0%≤substrate protein remaining %≤80%)”. In assay [1], the inhibition at 0.01 µM fell in the range of 30 to 35% and the inhibition at 0.5 µM lay in the range of 40 to 60%. Besides, the “Degradation of substrate protein CDK6 (substrate protein remaining %)” value on CDK6 is “A (0%≤substrate protein remaining %≤80%)”.
With `CN(C)C(=O)c1cc2cnc(Nc3ccc(N4CCC(N(C)Cc5ccc6c(c5)CN(N5CCC(=O)NC5=O)C6=O)CC4)cn3)nc2n1C1CCCC1` [GT-06487, 7-cyclopentyl-2-((5-(4-(((2-(2,4-dioxotetrahydropyrimidin-1(2H)-yl)-1-oxoisoindolin-5-yl)methyl)(methyl)amino)piperidin-1-yl)pyridin-2-yl)amino)-N,N-dimethyl-7H-pyrrolo[2,3-d]pyrimidine-6-carboxamide], at CDK4, the “Degradation of substrate protein CDK4 (substrate protein remaining %)” value is “A (0%≤substrate protein remaining %≤80%)”. In assay [1], the inhibition at 0.01 µM is 25 to 30% and the inhibition at 0.5 µM lay in the range of 40 to 60%. In addition, the “Degradation of substrate protein CDK6 (substrate protein remaining %)” value on CDK6 is recorded as “A (0%≤substrate protein remaining %≤80%)”.
Turning to `CN(C)C(=O)c1cc2cnc(Nc3ccc(N4CCC(N(C)CC5CCN(c6ccc7c(c6)C(=O)N(N6CCC(=O)NC6=O)C7=O)CC5)CC4)cn3)nc2n1C1CCCC1` [GT-06489, 7-cyclopentyl-2-((5-(4-(((1-(2-(2,4-dioxotetrahydropyrimidin-1(2H)-yl)-1,3-dioxoisoindolin-5-yl)piperidin-4-yl)methyl)(methyl)amino)piperidin-1-yl)pyridin-2-yl)amino)-N,N-dimethyl-7H-pyrrolo[2,3-d]pyrimidine-6-carboxamide], in assay [2], the inhibition at 0.01 µM was in the range of 25 to 30% and the inhibition at 0.5 µM was 40 to 60%. For the same compound, the “Degradation of substrate protein CDK4 (substrate protein remaining %)” value on CDK4 is recorded as “A (0%≤substrate protein remaining %≤80%)”. Also, in assay [1], the inhibition at 0.01 µM lay in the range of 30 to 35% and the inhibition at 0.5 µM is 40 to 60%. On CDK6, the “Degradation of substrate protein CDK6 (substrate protein remaining %)” value was “A (0%≤substrate protein remaining %≤80%)”.
As for `CC(=O)c1c(C)c2cnc(Nc3ccc(N4CCN(Cc5ccc6c(c5)CN(N5CCC(=O)NC5=O)C6=O)CC4)cn3)nc2n(C2CCCC2)c1=O` [GT-06573, 1-(5-((4-(6-((6-acetyl-8-cyclopentyl-5-methyl-7-oxo-7,8-dihydropyrido[2,3-d]pyrimidin-2-yl)amino)pyridin-3-yl)piperazin-1-yl)methyl)-1-oxoisoindolin-2-yl)dihydropyrimidine-2,4 (1H,3H)-dione], in assay [2], the inhibition at 0.01 µM lay in the range of 40 to 60% and the inhibition at 0.5 µM lay in the range of 60 to 80%. The “Degradation of substrate protein CDK4 (substrate protein remaining %)” value at CDK4 is “B (80%<substrate protein remaining %≤100%)”. In assay [1], the inhibition at 0.01 µM was in the range of 30 to 35% and the inhibition at 0.5 µM was in the range of 40 to 60%. The “Degradation of substrate protein CDK6 (substrate protein remaining %)” value on CDK6 is “A (0%≤substrate protein remaining %≤80%)”.

A word on the inhibition: it is the drop in the measured response relative to a control, in per cent.
